In patent publication US8232273B2, “Heterocyclic compounds and methods of use” (Genentech, Inc., priority 2008, dated 2012) one finds Ki data, which are given here for 10 compounds.

Chain of Bcl-xL (GST-Bcl-xL) (Q07817 whole entry, species assumed): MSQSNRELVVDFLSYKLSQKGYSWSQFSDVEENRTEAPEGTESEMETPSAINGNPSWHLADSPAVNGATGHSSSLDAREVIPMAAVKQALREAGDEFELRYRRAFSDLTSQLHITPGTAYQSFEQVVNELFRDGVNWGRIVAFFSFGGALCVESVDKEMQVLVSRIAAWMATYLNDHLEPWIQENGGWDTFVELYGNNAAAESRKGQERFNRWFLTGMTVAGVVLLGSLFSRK

The assay deals with Bcl-xL (GST-Bcl-xL) (Homo sapiens, UniProt Q07817). The experiment in a line: TR-FRET binding assay, competition with F-Bak for the Bcl-xL binding site. The following applies: values listed in the order of Table 1, read-out: TR-FRET assay results (Ki), Bcl-xL. How it is done: The measurement of competition of compounds of the invention with F-Bak for a Bcl-2 family protein (Bcl-xL) binding site using a Time Resolved Fluorescence Resonance Energy Transfer (TR-FRET) binding assay:
Test compounds were serially diluted in DMSO starting at 50 μM (2× starting concentration; 10% DMSO) and 10 μt transferred into a 384-well plate.
The samples are then mixed on a shaker for 1 minute then incubated for an additional 2 hours at room temperature. For each assay plate, a probe/antibody and protein/antibody/probe mixture were included as a negative and a positive control, respectively. Fluorescence was measured on the Envision (Perkin Elmer) using a 340/35 nm excitation filter and 520/525 (F-Bak) and 495/510 nm (Tb-labeled anti-his antibody) emission filters. Dissociation constants (Ki) were determined using Wang's equation (see, Wang, Z. X. An exact mathematical expression for describing competitive binding of two different ligands to a protein molecule. FEBS Lett. 1995 360:111-114). The TR-FRET assay can be performed in the presence of varying concentrations of human serum (HS) or fetal bovine serum (FBS).
As to `O=C(Nc1nc2ccccc2s1)c1cccc2c1CN(c1ccc(CCCCOc3ccccc3)c(C(=O)O)n1)CC2` [Compound 131, 6-(8-(benzo[d]thiazol-2-ylcarbamoyl)-3,4-dihydroisoquinolin-2(1H)-yl)-3-(4-phenoxybutyl)picolinic acid], the inhibition constant Ki was 18900 pM. Regarding `O=C(Nc1nc2ccccc2s1)c1cccc2c1CN(c1nc(C(=O)O)c(CCOCc3ccccc3)s1)CC2` [Compound 134, 2-(8-(benzo[d]thiazol-2-ylcarbamoyl)-3,4-dihydroisoquinolin-2(1H)-yl)-5-(2-(benzyloxy)ethyl)thiazole-4-carboxylic acid], the Ki came to 600 pM.

Turning to `CN(C)CC#Cc1ccc(OCCCc2sc(N3CCc4cccc(C(=O)Nc5nc6ccccc6s5)c4C3)nc2C(=O)NS(C)(=O)=O)c(F)c1` [Compound 142, 2-(8-(benzo[d]thiazol-2-ylcarbamoyl)-3,4-dihydroisoquinolin-2(1H)-yl)-5-(3-(4-(3-(dimethylamino)prop-1-ynyl)-2-fluorophenoxy)propyl)-N-(methylsulfonyl) thiazole-4-carboxamide], the Ki is 88 pM. As to `CN(C)CC#Cc1ccc(OCCCc2sc(N3CCc4cccc(C(=O)Nc5nc6ccccc6s5)c4C3)nc2C(=O)NS(=O)(=O)C(F)F)c(F)c1` [Compound 147, 2-(8-(benzo[d]thiazol-2-ylcarbamoyl)-3,4-dihydroisoquinolin-2(1H)-yl)-N-(difluoromethylsulfonyl)-5-(3-(4-(3-(dimethylamino)prop-1-ynyl)-2-fluorophenoxy)propyl)thiazole-4-carboxamide], the Ki is greater than 660000 pM.

As to `O=C(Nc1nc2ccccc2s1)c1cccc2c1CN(c1nc(C(=O)O)c(CCCN3CCOCC3)s1)CC2` [Example 19, 2-(8-(benzo[d]thiazol-2-ylcarbamoyl)-3,4-dihydroisoquinolin-2(1H)-yl)-5-(3-morpholinopropyl)thiazole-4-carboxylic acid], the inhibition constant Ki amounted to 9000 pM.

As for `O=C(Nc1nc2ccccc2s1)c1cccc2c1CN(c1nc(C(=O)O)c(CCCOc3cccc(-n4ncc5cncnc54)c3)s1)CC2` [Example 33], the Ki was 300 pM. With `N#Cc1c(-c2cccc(OCC#Cc3sc(N4CCc5cccc(C(=O)Nc6nc7ccccc7s6)c5C4)nc3C(=O)O)c2)n[nH]c1N` [Example 36, 5-(3-(3-(5-amino-4-cyano-1H-pyrazol-3-yl)phenoxy)prop-1-ynyl)-2-(8-(benzo[d]thiazol-2-ylcarbamoyl)-3,4-dihydroisoquinolin-2(1H)-yl)thiazole-4-carboxylic acid] the figure was 5000 pM; with `N#Cc1c(-c2cccc(OCc3ccc(-c4sc(N5CCc6cccc(C(=O)Nc7nc8ccccc8s7)c6C5)nc4C(=O)O)cc3)c2)n[nH]c1N` [Example 37, 5-(4-((3-(5-amino-4-cyano-1H-pyrazol-3-yl)phenoxy)methyl)phenyl)-2-(8-(benzo[d]thiazol-2-ylcarbamoyl)-3,4-dihydroisoquinolin-2(1H)-yl)thiazole-4-carboxylic acid], 4000 pM; with `N#Cc1c(-c2cccc(OCCCc3sc(N4CCc5cccc(C(=O)Nc6nc7ccccc7s6)c5C4)nc3C(=O)O)c2)n[nH]c1N` [Example 39, 5-(3-(3-(5-amino-4-cyano-1H-pyrazol-3-yl)phenoxy)propyl)-2-(8-(benzo[d]thiazol-2-ylcarbamoyl)-3,4-dihydroisoquinolin-2(1H)-yl)thiazole-4-carboxylic acid], 200 pM. Consider `N#Cc1c(-c2ccc(OCC#Cc3sc(N4CCc5cccc(C(=O)Nc6nc7ccccc7s6)c5C4)nc3C(=O)O)cc2)n[nH]c1N` [Example 40, 5-(3-(4-(5-amino-4-cyano-1H-pyrazol-3-yl)phenoxy)prop-1-ynyl)-2-(8-(benzo[d]thiazol-2-ylcarbamoyl)-3,4-dihydroisoquinolin-2(1H)-yl)thiazole-4-carboxylic acid], for which the inhibition constant Ki amounted to 400 pM.
